US4379779A, “Equilin hapten and assay method” (American Home Products Corporation, priority 1980, dated 1983)

Experiments:
[1] = system: Equilin Antibody (anti-equilin serum); experiment: Cross-reactivity of steroids with anti-equilin serum (radioimmunoassay); format: binding, rabbit; conditions: for Equilin Antibody (Percent Cross-Reactivity): Table 1, anti-equilin serum, [2,4-3H]-equilin tracer
Protocol: A standard was prepared from a stock solution of unlabeled equilin in absolute ethanol (100 ng/ml). A working standard solution containing 1 ng/ml of equilin was prepared in sodium phosphate buffer (0.1 M, pH 7, 0.9% NaCl). The labeled [2,4-^3 H]-equilin solution was prepared in the assay buffer at a concentration of 100 pg/ml. The antiserum was prepared in BSA-assay buffer (1 g BSA/1000 ml sodium phosphate buffer) at a concentration of one-fifth of the final working dilutions.
The standard curve was established by preparing duplicate 3 ml centrifuge tubes containing 0, 50, 100, 250, 500, 1000, and 2000 pg of equilin in a total volume of 0.5 ml assay buffer. The sample tubes were prepared in duplicate with hydrolyzed plasma extract (0.1 ml) and assay buffer (0.4 ml) in a total volume of 0.5 ml. To all standard and sample tubes antibody (0.25 ml) and labeled steroid (0.5 ml) were added. These were mixed and allowed to incubate at 4° C. for 18 hr. After addition of 0.2 ml gamma globulin dextrancoated charcoal (4 g charcoal, 0.4 g dextran, 0.8 g human gamma globulin, 200 ml deionized water), each tube was again mixed and placed in a cold room (4° C.) for 20 min. After centrifugation at 2,500 rev./min for 6 min, 0.5 ml of each supernatant was aliquoted into a counting vial. Then 15 ml of a scintillation medium (4 g of 2,5-diphenyloxazole (PPO), 50 mg of 1,4-di-2-(5-phenyloxazoyl)-benzene(dimethyl-POPOP), 100 ml of an aqueous solubilizer Biosolv BBS-3 (Biosolv is a trademark of Bechman Istruments, Irvine, Calif., U.S.A.) and 1000 ml toluene) was added to each vial. The samples were counted to a relative standard error of less than 2% in a Packard model 3320 liquid scintillation counter, Packard Instrument Co., Downers Grove, Ill., U.S.A., see C. Matthijssen and J. W. Goldzieher, Analyt. Biochem., 10, 401 (1965).
All rabbits immunized with the immunogen produced antisera with high titers and specificity in 6 months' time. The titer was determined from the ability of antibody to bind a constant amount (50 pg) of the labeled steroid. As a primary step, the cross-reactivity [G. E. Abraham, J. Clin. Endocrinol. Metabol., 29, 866 (1969)] of estrone with anti-equilin serum obtained from each rabbit was evaluated. […] These latter two compounds represent about 2% each of the typical composition of estrogens present in conjugated estrogens and will not interfere, as shown, in the validation of the assay.

[2] = Oxidation of equilin to equilenin during formic acid hydrolysis of the conjugate fraction (HPLC); format: physicochemical; conditions: 120 min
Protocol: Plasma (0.2 ml) and distilled water (0.7 ml) were added to a 16×125 nm tube and mixed. [6,7-^3 H]-Estrone-3-sulfate (0.1 ml, 2,000 cpm) and [2,4-^3 H]-equilin (0.1 ml, 2,000 cpm) were then added to correct for recovery through the assay procedure, and the sample again mixed well and allowed to stand at room temperature for 30 min. Diethyl ether (2 ml) was added for extraction of the free compound. The extraction was repeated three times and the combined extracts washed with distilled water (1 ml) and the solvent removed by evaporation. The aqueous phase containing the conjugates was re-extracted with 2 ml of ethyl acetate-ethanol (4:1, v/v). The extraction was repeated two more times and the combined extracts were dried in a centrifuge tube (12 ml) under a stream of nitrogen. The conjugate fraction was hydrolyzed with formic acid. A solution of ethyl acetate (1 ml) containing formic acid (20% ) and ascorbic acid (1 mg) was added to the tube containing the conjugate fraction. The tube was tightly closed, vortexed, and sonified for 10 min before being placed in a 37° C. water bath for 2 hr. The hydrolyzed sample was taken to dryness, sodium phosphate buffer (1 ml) was added. The solution was vortexed and allowed to stand at 20° C. for 10 min. The hydrolyzed free compound was extracted with diethyl ether (2 ml) three times and taken to dryness. […]

Row | SMILES | Equilin Antibody (Percent Cross-Reactivity) [1] [%] | further results
1 | C[C@]12CCC3=C(CCc4cc(O)ccc43)[C@@H]1CCC2=O [8-Dehydroestrone] | 0.94 | 
2 | C[C@]12CC[C@@H]3c4ccc(O)cc4CC[C@H]3[C@@H]1CC[C@H]2O [17α-Estradiol] | < 0.10 | 
3 | C[C@]12CCc3c(ccc4cc(O)ccc34)[C@@H]1CCC2=O [Equilenin] | 3.45 | cross-reaction with anti-equilin serum [1]: 3.5%
4 | C[C@]12CC[C@@H](O)C[C@@H]1CC[C@@H]1[C@@H]2CC[C@]2(C)C(=O)CC[C@@H]12 [Androsterone] | < 0.10 | 
5 | C[C@]12CCc3c(ccc4cc(O)ccc34)[C@@H]1CC[C@@H]2O [17β-Dihydroequilenin] | < 0.10 | 
6 | C[C@]12CC[C@@H]3c4ccc(OS(=O)(=O)O)cc4CC[C@H]3[C@@H]1CCC2=O [Estrone 3-sulfate] | < 0.10 | 
7 | C[C@]12CC[C@@H]3c4ccc(O)cc4C[C@@H](O)[C@]3(O)[C@@H]1CCC2=O [Equilin-7α,8α-glycol] | < 0.10 | 
8 | C[C@]12CC[C@H]3[C@@H](CCC4=CC(=O)CC[C@@]43C)[C@@H]1CC[C@@H]2O [Testosterone] | < 0.10 | 
9 | C[C@]12CCC(=O)C=C1CC[C@@H]1[C@@H]2CC[C@]2(C)C(=O)CC[C@@H]12 [4-Androstene-3,17-dione] | < 0.10 | 
10 | C[C@]12CC[C@H](O)CC1=CC[C@@H]1[C@@H]2CC[C@]2(C)C(=O)CC[C@@H]12 [Dehydroepiandrosterone] | < 0.10 | 
11 | C[C@]12CC[C@H]3C(=CCc4cc(O)ccc43)[C@@H]1CC[C@H]2O [17α-Dihydroequilin] | < 0.10 | 
12 | C[C@]12CCc3c(ccc4cc(O)ccc34)[C@@H]1CC[C@H]2O [17α-Dihydroequilenin] | < 0.10 | 
13 | C[C@]12CC[C@H]3C(=CCc4cc(O)ccc43)[C@@H]1CC[C@@H]2O [17β-Dihydroequilin] | 2.86 | cross-reaction with anti-equilin serum [1]: 2.9%
14 | C[C@]12CC[C@H]3C(=CCc4cc(O)ccc43)[C@@H]1CCC2=O [Equilin, 3-hydroxy-1,3,5(10),7-estratetraen-17-one] | 100.0 | equilin oxidized to equilenin during hydrolysis ([2]; formic acid hydrolysis with 0.1% (w/v) ascorbic acid added): 2-3%; equilin oxidized to equilenin during hydrolysis ([2]; hydrolysis of conjugate fraction with formic acid, no antioxidant): 13-16%
15 | C[C@]12CC[C@@H]3c4ccc(O)cc4CC[C@H]3[C@@H]1CC[C@@H]2O [17β-Estradiol] | < 0.10 | 
16 | CC(=O)[C@H]1CC[C@H]2[C@@H]3CCC4=CC(=O)CC[C@]4(C)[C@H]3CC[C@]12C [Progesterone] | < 0.10 | 
17 | C[C@]12CC[C@@H]3c4ccc(O)cc4C=C[C@H]3[C@@H]1CCC2=O [6-Dehydroestrone] | < 0.10 | 
18 | C[C@]12CC[C@@H]3c4ccc(O)cc4CC[C@H]3[C@@H]1CCC2=O [Estrone] | 0.78 | cross-reaction with anti-equilin serum [1]: negligible cross-reaction
19 | C[C@]12CCC(=O)C=C1CC[C@@H]1[C@@H]2[C@@H](O)C[C@@]2(C)[C@H]1CC[C@]2(O)C(=O)CO [Cortisol] | < 0.10 | 
20 | C[C@]12CC[C@H]3C(=CCc4cc(OS(=O)(=O)O)ccc43)[C@@H]1CCC2=O [Equilin 3-Sulfate] | 1.36 | 
